Reference: patent publication US8975417B2, “Pyrazolopyrrolidine derivatives and their use in the treatment of disease” (Novartis AG, priority 2013, dated 2015)

Key:
His-Brd2(60-472) = His-Brd2(60-472) (Homo sapiens (Human), UniProt P25440); assay: TR-FRET in-vitro binding assay for BRD2; details: biochemical
Procedure, shortened: (§1)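 Eight-point dilution series tested against in-house His-BRD2(60-472), BRD3(20-477) or BRD4(44-477) (45 nM in dispensed solution) binding acetyl-histone H4 (AcK5,8,12,16; 60 nM in dispensed solution). Incubation 35 min at 30 °C, pH 7.5 HEPES buffer; detection by TR-FRET using Eu-anti-His6 and streptavidin-allophycocyanin.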

THP-1 cells = assay: Cell growth inhibition assay (CellTiter-Glo), THP-1; assay type: cell-based; details: Homo sapiens, read-out: THP-1 TGI
Procedure, shortened: (§2)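 Luminescent ATP quantification served as the viability read-out following incubation at 37° C. under 5% CO2. A day-0 reference plate allowed scaling from −100% (medium) to 100% (0.1% DMSO vehicle), with IC50 and TGI fitted by a four-parameter model.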

His-Brd3(20-477) = His-Brd3(20-477) (Homo sapiens (Human), UniProt Q15059); assay: TR-FRET in-vitro binding assay for BRD3; details: biochemical
Procedure, shortened: as §1

K-562 cells = assay: Cell growth inhibition assay (CellTiter-Glo), K-562; assay type: cell-based, human; details: Homo sapiens, K562, read-out: K-562 TGI
Procedure, shortened: as §2

MV-4-11 cells = assay: Cell growth inhibition assay (CellTiter-Glo), MV-4-11; assay type: cell-based; details: Homo sapiens, MV4-11, read-out: MV-4-11 TGI
Procedure, shortened: as §2

His-Brd2(60-472), sequence (P25440 60-472): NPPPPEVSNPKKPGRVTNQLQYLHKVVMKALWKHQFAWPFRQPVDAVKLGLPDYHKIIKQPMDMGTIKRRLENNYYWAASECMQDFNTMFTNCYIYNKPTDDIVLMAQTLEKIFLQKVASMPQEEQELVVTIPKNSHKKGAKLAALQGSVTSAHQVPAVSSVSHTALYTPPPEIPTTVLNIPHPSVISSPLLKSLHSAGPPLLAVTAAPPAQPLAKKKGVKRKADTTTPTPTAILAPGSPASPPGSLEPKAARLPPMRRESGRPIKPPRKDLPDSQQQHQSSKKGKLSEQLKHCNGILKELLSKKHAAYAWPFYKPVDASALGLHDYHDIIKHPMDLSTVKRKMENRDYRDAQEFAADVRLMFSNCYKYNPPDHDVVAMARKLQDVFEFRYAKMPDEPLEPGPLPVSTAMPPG
His-Brd3(20-477), sequence (Q15059 20-477): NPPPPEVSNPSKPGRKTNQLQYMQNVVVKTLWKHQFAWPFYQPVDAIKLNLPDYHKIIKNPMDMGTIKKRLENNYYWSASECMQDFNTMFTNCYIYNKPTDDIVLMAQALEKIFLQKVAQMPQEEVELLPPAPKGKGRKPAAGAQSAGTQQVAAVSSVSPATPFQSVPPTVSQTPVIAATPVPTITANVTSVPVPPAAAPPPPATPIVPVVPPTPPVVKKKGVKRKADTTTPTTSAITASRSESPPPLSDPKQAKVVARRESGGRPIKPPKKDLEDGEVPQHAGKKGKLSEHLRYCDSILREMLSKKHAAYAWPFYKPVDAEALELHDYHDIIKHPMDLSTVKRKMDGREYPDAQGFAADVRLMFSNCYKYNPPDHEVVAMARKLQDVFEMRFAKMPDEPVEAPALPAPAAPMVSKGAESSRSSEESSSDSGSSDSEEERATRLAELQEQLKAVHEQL

Cc1nn(C2CC2)c2c1C(c1cccc(C(F)(F)F)c1)N(c1cc(C)c(=O)n(C)c1)C2=O (centres unmarked) [Example 96, 1-cyclopropyl-5-(1,5-dimethyl-6-oxo-1,6-dihydropyridin-3-yl)-3-methyl-4-(3-(trifluoromethyl)phenyl)-4,5-dihydropyrrolo[3,4-c]pyrazol-6(1H)-one]
IC50 (His-Brd2(60-472)): 660 nM
IC (total growth inhibition) (THP-1 cells): 2.55 µM
IC50 (His-Brd3(20-477)): 800 nM
IC (total growth inhibition) (K-562 cells): > 10 µM
IC (total growth inhibition) (MV-4-11 cells): 1.24 µM

CCOC(=O)N1CC(n2nc(C)c3c2C(=O)N(c2cc(C)c4nnc(C)n4c2)C3c2ccc(Cl)cc2)C1 (centres unmarked) [Example 156, Ethyl 3-(4-(4-chlorophenyl)-5-(3,8-dimethyl-[1,2,4]triazolo[4,3-a]pyridin-6-yl)-3-methyl-6-oxo-5,6-dihydropyrrolo[3,4-c]pyrazol-1(4H)-yl)azetidine-1-carboxylate]
IC50 (His-Brd2(60-472)): 59 nM
IC (total growth inhibition) (THP-1 cells): 0.143 µM
IC50 (His-Brd3(20-477)): 77 nM
IC (total growth inhibition) (K-562 cells): > 10 µM
IC (total growth inhibition) (MV-4-11 cells): 0.058 µM

CC(=O)N1CC(n2nc(C)c3c2C(=O)N(c2cc(C)c4nnc(C)n4c2)C3c2ccc(Cl)cc2)C1 (centres unmarked) [Example 154, 1-(1-acetylazetidin-3-yl)-4-(4-chlorophenyl)-5-(3,8-dimethyl-[1,2,4]triazolo[4,3-a]pyridin-6-yl)-3-methyl-4,5-dihydropyrrolo[3,4-c]pyrazol-6(1H)-one]
IC50 (His-Brd2(60-472)): 120 nM
IC (total growth inhibition) (THP-1 cells): 0.538 µM
IC50 (His-Brd3(20-477)): 120 nM
IC (total growth inhibition) (K-562 cells): > 10 µM
IC (total growth inhibition) (MV-4-11 cells): 0.112 µM

CCc1nn(CCOC)c2c1C(c1ccc(Cl)cc1)N(c1cc(C)c3nnc(C)n3c1)C2=O (centres unmarked) [Example 87, 4-(4-chlorophenyl)-5-(3,8-dimethyl-[1,2,4]triazolo[4,3-a]pyridin-6-yl)-3-ethyl-1-(2-methoxyethyl)-4,5-dihydropyrrolo[3,4-c]pyrazol-6(1H)-one]
IC50 (His-Brd2(60-472)): 72 nM
IC (total growth inhibition) (THP-1 cells): 0.0598 µM
IC50 (His-Brd3(20-477)): 59 nM
IC (total growth inhibition) (K-562 cells): > 10 µM
IC (total growth inhibition) (MV-4-11 cells): 0.0288 µM

CCc1nn(CCO)c2c1C(c1ccc(Cl)cc1)N(c1cc(C)c(=O)n(C)c1)C2=O (centres unmarked) [Example 78, 4-(4-chlorophenyl)-5-(1,5-dimethyl-6-oxo-1,6-dihydropyridin-3-yl)-3-ethyl-1-(2-hydroxyethyl)-4,5-dihydropyrrolo[3,4-c]pyrazol-6(1H)-one]
IC50 (His-Brd2(60-472)): 79 nM
IC (total growth inhibition) (THP-1 cells): 0.223 µM
IC50 (His-Brd3(20-477)): 57 nM
IC (total growth inhibition) (K-562 cells): > 10 µM
IC (total growth inhibition) (MV-4-11 cells): 0.0855 µM

Cc1nn(C(C)C)c2c1[C@@H](c1ccc(Cl)cc1)N(c1cc(C)c(=O)n(C)c1)C2=O [Example 104, (R)-4-(4-chlorophenyl)-5-(1,5-dimethyl-6-oxo-1,6-dihydropyridin-3-yl)-1-isopropyl-3-methyl-4,5-dihydropyrrolo[3,4-c]pyrazol-6(1H)-one]
IC50 (His-Brd2(60-472)): 14 nM
IC (total growth inhibition) (THP-1 cells): 0.045 µM
IC50 (His-Brd3(20-477)): 15 nM
IC (total growth inhibition) (K-562 cells): > 10 µM
IC (total growth inhibition) (MV-4-11 cells): 0.0191 µM

Cc1nn(-c2ccnn2C)c2c1C(c1ccc(Cl)cc1)N(c1cc(C)c3nnc(C)n3c1)C2=O (centres unmarked) [Example 90, 4-(4-chlorophenyl)-5-(3,8-dimethyl-[1,2,4]triazolo[4,3-a]pyridin-6-yl)-3-methyl-1-(1-methyl-1H-pyrazol-5-yl)-4,5-dihydropyrrolo[3,4-c]pyrazol-6(1H)-one]
IC50 (His-Brd2(60-472)): 28 nM
IC (total growth inhibition) (THP-1 cells): 0.115 µM
IC50 (His-Brd3(20-477)): 28 nM
IC (total growth inhibition) (K-562 cells): > 10 µM
IC (total growth inhibition) (MV-4-11 cells): 0.0436 µM

COc1ncccc1-n1nc(C)c2c1C(=O)N(c1cc(C)c(=O)n(C)c1)[C@H]2c1ccc(Cl)cc1 [Example 127, (S)-4-(4-chlorophenyl)-5-(1,5-dimethyl-6-oxo-1,6-dihydropyridin-3-yl)-1-(2-methoxypyridin-3-yl)-3-methyl-4,5-dihydropyrrolo[3,4-c]pyrazol-6(1H)-one]
IC50 (His-Brd2(60-472)): 4400 nM
IC (total growth inhibition) (THP-1 cells): > 10 µM
IC50 (His-Brd3(20-477)): 5100 nM
IC (total growth inhibition) (K-562 cells): > 10 µM
IC (total growth inhibition) (MV-4-11 cells): 4.49 µM

CNC(=O)n1nc(C)c2c1C(=O)N(c1cc(C)c3nnc(C)n3c1)C2c1ccc(Cl)cc1 (centres unmarked) [Example 145, 4-(4-chlorophenyl)-5-(3,8-dimethyl-[1,2,4]triazolo[4,3-a]pyridin-6-yl)-N,3-dimethyl-6-oxo-5,6-dihydropyrrolo[3,4-c]pyrazole-1(4H)-carboxamide]
IC50 (His-Brd2(60-472)): 180 nM
IC (total growth inhibition) (THP-1 cells): 0.335 µM
IC50 (His-Brd3(20-477)): 190 nM
IC (total growth inhibition) (K-562 cells): > 10 µM
IC (total growth inhibition) (MV-4-11 cells): 0.093 µM

Cc1nn(C(C)C)c2c1[C@H](c1ccc(Cl)cc1)N(c1cc(C)c(=O)n(C)c1)C2=O [Example 103, (S)-4-(4-chlorophenyl)-5-(1,5-dimethyl-6-oxo-1,6-dihydropyridin-3-yl)-1-isopropyl-3-methyl-4,5-dihydropyrrolo[3,4-c]pyrazol-6(1H)-one]
IC50 (His-Brd2(60-472)): 5300 nM
IC (total growth inhibition) (THP-1 cells): > 10 µM
IC50 (His-Brd3(20-477)): 6100 nM
IC (total growth inhibition) (K-562 cells): > 10 µM
IC (total growth inhibition) (MV-4-11 cells): 6.54 µM

COc1ncccc1-n1nc(C)c2c1C(=O)N(c1cc(C)c3nnn(C)c3n1)C2c1ccc(Cl)cc1 (centres unmarked) [Example 109, 4-(4-chlorophenyl)-5-(3,7-dimethyl-3H-[1,2,3]triazolo[4,5-b]pyridin-5-yl)-1-(2-methoxypyridin-3-yl)-3-methyl-4,5-dihydropyrrolo[3,4-c]pyrazol-6(1H)-one]
IC50 (His-Brd2(60-472)): 27 nM
IC (total growth inhibition) (THP-1 cells): 0.0904 µM
IC50 (His-Brd3(20-477)): 27 nM
IC (total growth inhibition) (K-562 cells): > 10 µM
IC (total growth inhibition) (MV-4-11 cells): 0.0381 µM

CCn1nc(C)c2c1C(=O)N(c1cc(C)c3nnc(C)n3c1)C2c1ccc(Cl)cc1 (centres unmarked) [Example 116, 4-(4-chlorophenyl)-5-(3,8-dimethyl-[1,2,4]triazolo[4,3-a]pyridin-6-yl)-1-ethyl-3-methyl-4,5-dihydropyrrolo[3,4-c]pyrazol-6(1H)-one]
IC50 (His-Brd2(60-472)): 36 nM
IC (total growth inhibition) (THP-1 cells): 0.0354 µM
IC50 (His-Brd3(20-477)): 32 nM
IC (total growth inhibition) (K-562 cells): > 10 µM
IC (total growth inhibition) (MV-4-11 cells): 0.0301 µM

CCc1nn(C2CC2)c2c1C(c1ccc(Cl)cc1)N(c1cc(C)c3nnc(C)n3c1)C2=O (centres unmarked) [Example 70, 4-(4-chlorophenyl)-1-cyclopropyl-5-(3,8-dimethyl-[1,2,4]triazolo[4,3-a]pyridin-6-yl)-3-ethyl-4,5-dihydropyrrolo[3,4-c]pyrazol-6(1H)-one]
IC50 (His-Brd2(60-472)): 31 nM
IC (total growth inhibition) (THP-1 cells): 0.0305 µM
IC50 (His-Brd3(20-477)): 29 nM
IC (total growth inhibition) (K-562 cells): > 10 µM
IC (total growth inhibition) (MV-4-11 cells): 0.0131 µM

Cc1nn(C2CC2)c2c1C(c1ccc(Cl)cc1)N(c1cc(C)c3nnn(C)c3n1)C2=O (centres unmarked) [Example 110, 4-(4-chlorophenyl)-1-cyclopropyl-5-(3,7-dimethyl-3H-[1,2,3]triazolo[4,5-b]pyridin-5-yl)-3-methyl-4,5-dihydropyrrolo[3,4-c]pyrazol-6(1H)-one]
IC50 (His-Brd2(60-472)): 18 nM
IC (total growth inhibition) (THP-1 cells): 0.0198 µM
IC50 (His-Brd3(20-477)): 14 nM
IC (total growth inhibition) (K-562 cells): > 10 µM
IC (total growth inhibition) (MV-4-11 cells): 0.0102 µM

CCc1nn(C2CC2)c2c1C(c1ccc(Cl)cc1)N(c1cc(OC)c3nnc(C)n3c1)C2=O (centres unmarked) [Example 84, 4-(4-chlorophenyl)-1-cyclopropyl-3-ethyl-5-(8-methoxy-3-methyl-[1,2,4]triazolo[4,3-a]pyridin-6-yl)-4,5-dihydropyrrolo[3,4-c]pyrazol-6(1H)-one]
IC50 (His-Brd2(60-472)): 37 nM
IC (total growth inhibition) (THP-1 cells): 0.163 µM
IC50 (His-Brd3(20-477)): 61.5 nM
IC (total growth inhibition) (K-562 cells): > 10 µM
IC (total growth inhibition) (MV-4-11 cells): 0.098 µM

COc1ncccc1-n1nc(C)c2c1C(=O)N(c1cc(Cl)c(=O)n(C)c1)C2c1ccc(Cl)cc1 (centres unmarked) [Example 72, 5-(5-chloro-1-methyl-6-oxo-1,6-dihydropyridin-3-yl)-4-(4-chlorophenyl)-1-(2-methoxypyridin-3-yl)-3-methyl-4,5-dihydropyrrolo[3,4-c]pyrazol-6(1H)-one]
IC50 (His-Brd2(60-472)): 60 nM
IC (total growth inhibition) (THP-1 cells): 0.408 µM
IC50 (His-Brd3(20-477)): 73 nM
IC (total growth inhibition) (K-562 cells): > 10 µM
IC (total growth inhibition) (MV-4-11 cells): 0.164 µM

CCc1nn(-c2ccnn2C)c2c1C(c1ccc(Cl)cc1)N(c1cc(C)c(=O)n(C)c1)C2=O (centres unmarked) [Example 89, 4-(4-chlorophenyl)-5-(1,5-dimethyl-6-oxo-1,6-dihydropyridin-3-yl)-3-ethyl-1-(1-methyl-1H-pyrazol-5-yl)-4,5-dihydropyrrolo[3,4-c]pyrazol-6(1H)-one]
IC50 (His-Brd2(60-472)): 60 nM
IC (total growth inhibition) (THP-1 cells): 0.119 µM
IC50 (His-Brd3(20-477)): 57 nM
IC (total growth inhibition) (K-562 cells): > 10 µM
IC (total growth inhibition) (MV-4-11 cells): 0.0673 µM

Cc1nn(C(=O)N(C)C)c2c1[C@@H](c1ccc(Cl)cc1)N(c1cc(C)c3nnc(C)n3c1)C2=O [Example 149, (R)-4-(4-chlorophenyl)-5-(3,8-dimethyl-[1,2,4]triazolo[4,3-a]pyridin-6-yl)-N,N,3-trimethyl-6-oxo-5,6-dihydropyrrolo[3,4-c]pyrazole-1(4H)-carboxamide]
IC50 (His-Brd2(60-472)): 36 nM
IC (total growth inhibition) (THP-1 cells): 0.138 µM
IC50 (His-Brd3(20-477)): 39 nM
IC (total growth inhibition) (K-562 cells): > 10 µM
IC (total growth inhibition) (MV-4-11 cells): 0.0505 µM

Cc1nn(-c2ccnn2C)c2c1[C@@H](c1ccc(Cl)cc1)N(c1cc(C)c(=O)n(C)c1)C2=O [Example 120, (R)-4-(4-chlorophenyl)-5-(1,5-dimethyl-6-oxo-1,6-dihydropyridin-3-yl)-3-methyl-1-(1-methyl-1H-pyrazol-5-yl)-4,5-dihydropyrrolo[3,4-c]pyrazol-6(1H)-one]
IC50 (His-Brd2(60-472)): 78 nM
IC (total growth inhibition) (THP-1 cells): 0.165 µM
IC50 (His-Brd3(20-477)): 83 nM
IC (total growth inhibition) (K-562 cells): > 10 µM
IC (total growth inhibition) (MV-4-11 cells): 0.106 µM
